# Measured values as given in patent publication US9617330B2, “Chemorepulsion of cells” (Celtaxsys, Inc., priority 2006, dated 2017).
# B1: CCL27: chemokine (protein, UniProt Q9Y4X3 25-112, looked up)
# C-C motif chemokine 27: FLLPPSTACCTQLYRKPLSDKLLRKVIQVELQEADGDCHLQAFVLHLAQRSICIHPQNPSLSQWFEHQERKLHGTLPKLNFGMLRKMG
# B2: Semaphorin 3F: semaphorin (protein, UniProt Q13275 19-785, looked up)
# Semaphorin-3F: SFPTQDHLPATPRVRLSFKELKATGTAHFFNFLLNTTDYRILLKDEDHDRMYVGSKDYVLSLDLHDINREPLIIHWAASPQRIEECVLSGKDVNGECGNFVRLIQPWNRTHLYVCGTGAYNPMCTYVNRGRRAQATPWTQTQAVRGRGSRATDGALRPMPTAPRQDYIFYLEPERLESGKGKCPYDPKLDTASALINEELYAGVYIDFMGTDAAIFRTLGKQTAMRTDQYNSRWLNDPSFIHAELIPDSAERNDDKLYFFFRERSAEAPQSPAVYARIGRICLNDDGGHCCLVNKWSTFLKARLVCSVPGEDGIETHFDELQDVFVQQTQDVRNPVIYAVFTSSGSVFRGSAVCVYSMADIRMVFNGPFAHKEGPNYQWMPFSGKMPYPRPGTCPGGTFTPSMKSTKDYPDEVINFMRSHPLMYQAVYPLQRRPLVVRTGAPYRLTTIAVDQVDAADGRYEVLFLGTDRGTVQKVIVLPKDDQELEELMLEEVEVFKDPAPVKTMTISSKRQQLYVASAVGVTHLSLHRCQAYGAACADCCLARDPYCAWDGQACSRYTASSKRRSRRQDVRHGNPIRQCRGFNSNANKNAVESVQYGVAGSAAFLECQPRSPQATVKWLFQRDPGDRRREIRAEDRFLRTEQGLLLRALQLSDRGLYSCTATENNFKHVVTRVQLHVLGRDAVHAALFPPLSMSAPPPPGAGPPTPPYQELAQLLAQPEVGLIHQYCQGYWRHVPPSPREAPGAPRSPEPQDQKKPRNRRHHPPDT
# B3: Galectin-2: carbohydrate binding protein (galectin), full-length, purchased; accession P05162 (protein, UniProt P05162 1-132, looked up)
# chain: MTGELEVKNMDMKPGSTLKITGSIADGTDGFVINLGQGTDKLNLHFNPRFSESTIVCNSLDGSNWGQEQREDHLCFSPGSEVKFTVTFESDKFKVKLPDGHELTFPNRLGHSHLSYLSVRGGFNMSSFKLKE
# modifications: full-length
# B4: Semaphorin 3A: semaphorin (protein, UniProt Q14563 21-771, looked up)
# Semaphorin-3A: NYQNGKNNVPRLKLSYKEMLESNNVITFNGLANSSSYHTFLLDEERSRLYVGAKDHIFSFDLVNIKDFQKIVWPVSYTRRDECKWAGKDILKECANFIKVLKAYNQTHLYACGTGAFHPICTYIEIGHHPEDNIFKLENSHFENGRGKSPYDPKLLTASLLIDGELYSGTAADFMGRDFAIFRTLGHHHPIRTEQHDSRWLNDPKFISAHLISESDNPEDDKVYFFFRENAIDGEHSGKATHARIGQICKNDFGGHRSLVNKWTTFLKARLICSVPGPNGIDTHFDELQDVFLMNFKDPKNPVVYGVFTTSSNIFKGSAVCMYSMSDVRRVFLGPYAHRDGPNYQWVPYQGRVPYPRPGTCPSKTFGGFDSTKDLPDDVITFARSHPAMYNPVFPMNNRPIVIKTDVNYQFTQIVVDRVDAEDGQYDVMFIGTDVGTVLKVVSIPKETWYDLEEVLLEEMTVFREPTAISAMELSTKQQQLYIGSTAGVAQLPLHRCDIYGKACAECCLARDPYCAWDGSACSRYFPTAKRRTRRQDIRNGDPLTHCSDLHHDNHHGHSPEERIIYGVENSSTFLECSPKSQRALVYWQFQRRNEERKEEIRVDDHIIRTDQGLLLRSLQQKDSGNYLCHAVEHGFIQTLLKVTLEVIDTEHLEELLHKDDDGDGSKTKEMSNSMTPSQKVWYRDFMQLINHPNLNTMDEFCEQVWKRDRKQRRQRPGHTPGNSNKWKHLQENKKGRNRRTHEFERAPRSV
# B5: Cathespin G, Human Neutrophil: Cathespin G, Human Neutrophil (protein, UniProt P08311 21-244, looked up)
# Cathepsin G: IIGGRESRPHSRPYMAYLQIQSPAGQSRCGGFLVREDFVLTAAHCWGSNINVTLGAHNIQRRENTQQHITARRAIRHPQYNQRTIQNDIMLLQLSRRVRRNRNVNPVALPRAQEGLRPGTLCTVAGWGRVSMRRGTDTLREVQLRVQRDRQCLRIFGSYDPRRQICVGDRRERKAAFKGDSGGPLLCNNVAHGIVSYGKSSGVPPEVFTRVSSFLPWIRTTMRS
# Key:
# [1] = tested on: Human primary CD4+ lymphocytes; experiment: Trans-well migration assay (Example 3 method), unimodal fugetaxin test; assay type: cell-based; set-up: key: A “+” in the Table indicates a positive hit as a unimodal fugetaxin, as that term is defined herein, for that particular cell type; details: methods of Example 3
# [2] = tested on: Human primary neutrophils; experiment: as above; assay type: cell-based; set-up: key to Unimodal fugetaxin hit, Neutrophils: A “+” in the Table indicates a positive hit as a unimodal fugetaxin, as that term is defined herein, for that particular cell type; details: for Unimodal fugetaxin hit, Neutrophils: human neutrophils, methods of Example 3
# [3] = tested on: Eo-HL60 (HL-60 clone 15 differentiated to eosinophil-like phenotype); experiment: Trans-well migration assay (Example 1), net migratory response; assay type: cell-based, human; details: net observed response
# Neutrophils = experiment: High throughput transmigration assay (Example 9), chemorepulsion; assay type: cell-based, human; details: Neutrophils, mean of three donors at concentration of highest activity
# Monocyte = experiment: Trans-well migration assay (Example 1), net migratory response; details: Monocyte; net observed response
# Description: (§5) Prior to beginning the assay 0.5% Fetal Calf Serum (FCS) in Iscove's Modified Dulbecco's Medium (IMDM) is prepared and stored on ice (Assay Medium). Migratory cells at a concentration of 2×10^7 cells/ml are suspended in Assay Medium. T-cells isolated from donor blood or buffy coats are allowed to rest overnight in Assay Medium at 37° C. in 5% CO2. Neutrophils, monocytes and B cells are utilized as soon as they are purified from donor blood or other source of human origin. Four serial (10×) dilutions of the ligand are then prepared in Assay Medium (normally 10 μg/ml to 0.01 μg/ml).
# (§6) Plates are removed from the packaging, leaving the membrane behind and intact. The membrane is set aside. Into each well is pipetted 31 μl of solution. For media controls and fugetaxis (chemorepellent) samples, Assay Medium is used. For chemoattraction samples, the appropriate dilution of agent in assay medium is used.
# (§7) Using a sterile needle, all small bubbles present in each well are popped and the membrane is carefully placed onto the plate, starting at one side and slowly lowering the other edge onto the plate.
# (§8) Then 29 μl is pipetted into each circle imprinted on the polycarbonate or polyester membrane. For media controls and chemoattraction samples, Assay Medium is used. For fugetaxis (chemorepellent) samples, the appropriate dilution of ligand in assay medium is used.
# (§9) To each 29 uL aliquot above is added 2 μl of cells (40,000 cells). It is important to ensure that before beginning the cells are well suspended and that they are mixed. This mixing can be accomplished by agitating the tube between each addition.
# (§10) The plate is then covered with the supplied lid and incubated 1-3 hours in a humidified incubator at 37° C. in 5% CO2. Following the incubation period, the liquid from the top of the plate is removed with a tissue or similar blotting material (e.g. a Kimwipe). The membrane is carefully removed from the top of the plate and discarded. […] Using a multichannel pipettor, each well of the microplate is rinsed with 25 μl Phosphate Buffered Saline (Mediatech #21-040-CV) and transferred to the same wells in the white microplate. Using a multichannel pipettor, 50 μl CellTiter-Glo Luminescent Cell Viability Assay (Promega #G7572) is added to each well and mixed.
# (§11) The plate is read using the Perkin Elmer Victor^3V plate reader using the Large Aperture Luminescence setting at 8 mm height above the plate with a dwell time of 1 s to quantify the number of migrated cells.
# (§12) The results reported reflect the net observed migratory response of the cells to the ligand and are not based on the definition of unimodal fugetaxins.
# B cells = experiment: High throughput transmigration assay (Example 9), chemorepulsion; assay type: cell-based, human; set-up: key: ratio of chemorepulsion (CR) to spontaneous migration (SM), CR/SM
# Excerpt: (§1) An agent's repellent index is the ratio of chemorepulsion (CR) to spontaneous migration (SM) induced by the agent, i.e., [(CR)/(SM)]. […] For example, in calculating a RI for an agent, migratory responses including chemorepulsion (CR) and spontaneous migration (SM) may be measured over several decades or log scales of concentration. If, over any two consecutive measurements at concentrations which differ by at least 10 fold, the ratio of CR to SM at each of the two contiguous measurements is equal to or greater than 1.2, then the agent is considered a validated chemorepellent.
# (§2) For primary human T cells, up to 80 ml of blood is drawn from a human donor in sodium heparin Vacutainer tubes (Becton-Dickinson). The blood (between 10 and 15 ml per tube) is then layered onto 30 ml of Lymphocyte Separation Medium (LSM) (Cellgro, Herndon, Va.) in a 50 ml conical centrifuge tube and centrifuged for 20 minutes at 2440×g in a swinging bucket rotor. After removing the majority of the plasma from the top of each tube, the peripheral blood mononucleocyte (PBMC) layer is removed and transferred to fresh 50 ml conical centrifuge tubes. The tubes are then filled to 50 ml with IMDM and centrifuged for 10 minutes at 500×g. All but approximately 5 ml of the supernatant is then removed and the pellet resuspended with 25 ml IMDM and the centrifugation repeated. After removal of the supernatant, the cells are resuspended and combined to one 50 ml tube (per subject) and brought to a total volume of 50 ml. The cells are then counted using a hemacytometer (Reichert). After centrifugation under the same conditions, the supernatant is removed and the cells processed using the appropriate Miltenyi Biotec (Auburn, Calif.) negative selection kit to enrich for the desired cell type according to manufacturers instructions. The resulting purified cells are then diluted to 50 ml with IMDM. After centrifugation at 500×g for 10 minutes, the supernatant is removed and the cells resuspended in 15 ml IMDM supplemented with 0.5% heat inactivated fetal calf serum (FCS) (ATCC, Manassas, Va.). After another centrifugation for 10 minutes at 500×g, the supernatant is again removed and the cells resuspended in 7 ml 0.5% FCS in IMDM (assay medium) and transferred to a 15 ml conical centrifuge tube. The cells are then quantitated using a hemacytometer. When enriching for monocytes, the concentration of cells is adjusted to 2×10^7 per ml by centrifugation and removal of the appropriate volume of assay medium. For all other cell types, the tube cap is replaced with one from a 25 cm^2 tissue culture flask (Corning) and the cells stored overnight in a humidified 37° C. incubator with 5% CO2. The concentration of the cells is adjusted as for monocytes just prior to transmigration assay of Example 9.
# (§3) Migration away from a chemical or biological agent (chemorepulsion (CR)) was measured using ChemoTx plates (Neuroprobe). These plates contain a planar polycarbonate or polyester membrane that has been etched and perforated so that cells can move along the etched tracks and fall through perforation holes, enabling the cells to be collected and the number of migrated cells quantified (FIGS. 5-6). Several dilutions (normally 4 in 10-fold increments) are prepared of the agent of interest. For neutrophils, plates with 3 μm pore membranes are used, while for all other primary cell types, 5 μm pore membranes are used. Membranes may, or may not, be coated with polyvinylpyrrolidine (PVP) as a wetting agent.
# (§4) For spontaneous migration controls and chemorepulsion (CR) assays, 31 μl of assay medium is pipetted into the lower well of the transmigration apparatus (FIGS. 5-6). For spontaneous migration controls and chemoattraction (CA) assays, 29 μl of assay medium is pipetted into upper chamber of the transmigration apparatus (FIG. 5). For CR, the upper well assay medium contains the agent or candidate chemorepellent. […]
# B-cell = experiment: Trans-well migration assay (Example 1), net migratory response; details: net observed response
# Description: as §5, §6, §7, §8, §9, §10, §11, §12
# CD8+ = experiment: High throughput transmigration assay (Example 9), chemorepulsion; assay type: cell-based, human; details: mean of three donors at concentration of highest activity
# Excerpt: as §1, §2, §3, §4
# [4] = mean of three donors at concentration of highest activity, range 0.00125-1.25 μM
molecule,measurement,setting,value
HSP60: heat shock protein,"Unimodal fugetaxin hit, CD4+",[1],+
same,"Unimodal fugetaxin hit, Neutrophils",[2],+
same,Migratory Response,[3],chemorepulsion
HSP27: heat shock protein; accession G01523/AAA62175,"Unimodal fugetaxin hit, Neutrophils",[2],+
same,Migratory Response,[3],chemorepulsion
same,Repellent Index,Neutrophils; range 0.00125-1.25 μM,4.4
same,Migratory Response,Monocyte,chemorepulsion
"CC(C)Cn1cnc2c(N)nc3ccccc3c21 [Imiquimod, reference compound]","Unimodal fugetaxin hit, CD4+",[1],+
same,"Unimodal fugetaxin hit, Neutrophils",[2],+
same,Migratory Response,[3],chemorepulsion
same,Migratory Response,Monocyte,chemorepulsion
IL8: interleukin-8,chemotactic (chemoattractant) versus fugetactic (chemorepellent) response of neutrophils,"[2]; neutrophils, 1 hour, FIGS. 3 and 4, at 10 uM where stated",over twice as chemotactic (chemoattractant) as fugetactic (chemorepellent)
CCL11: chemokine,Repellent Index,B cells; [4],2.1
Poly(I:C) [reference compound],Migratory Response,[3],chemorepulsion
same,Repellent Index,Neutrophils; range 0.01-10 μg/ml,1.4
same,Migratory Response,Monocyte,chemorepulsion
same,Migratory Response,B-cell,chemorepulsion
HSP90: heat shock protein; accession NP_005339.2 and others,"Unimodal fugetaxin hit, CD4+",[1],+
same,"Unimodal fugetaxin hit, Neutrophils",[2],+
same,Migratory Response,[3],chemorepulsion
same,Repellent Index,Neutrophils; range 0.00125-1.25 μM,1.7
CXCL1: chemokine,Repellent Index,Neutrophils; range 0.00125-1.25 μM,2.6
same,Repellent Index,B cells; [4],1.3
B1,Repellent Index,B cells; [4],1.4
B2,Repellent Index,Neutrophils; range 0.01-10 μM,1.8
same,Repellent Index,CD8+; range 0.01-10 μM,1.3
B3,Migratory Response,[3],chemorepulsion
same,Repellent Index,CD8+; range 0.00125-1.25 μM,1.5
B4,Repellent Index,CD8+; range 0.01-10 μM,1.3
same,Repellent Index,"B cells; 0.00125 μM, one donor, triplicate, ± SD",1.87 ± 0.40
same,Repellent Index,"B cells; 0.0125 μM, one donor, triplicate, ± SD",2.07 ± 0.52
same,Repellent Index,"B cells; 0.125 μM, one donor, triplicate, ± SD",2.39 ± 0.71
same,Repellent Index,"B cells; 1.25 μM, one donor, triplicate, ± SD",2.16 ± 0.28
same,Repellent Index,"B cells; mean of three donors at concentration of highest activity, range 0.01-10 μM",1.6
B5,Migratory Response,[3],chemorepulsion
same,Migratory Response,Monocyte,chemorepulsion
same,Migratory Response,B-cell,chemorepulsion
